Source: publication PMC5128878 (Scientific Reports, 2016)
Values joined by “and” are separate entries in the source; they are usually repeats but may differ in a detail not shown here. Identical values can stand only once. Like-named read-outs stand apart in the source and are kept apart here.

What was measured:
α4β2 nAChR = molecular target: T1, α4β2 nAChR (Rattus norvegicus, UniProt P09483+P12390); experiment: cell-based; format: cell-based; conditions: for IC50: IC50 (95% CI), ACh 10 μM
T1 construct: expressed in transfected cells; host or cells: Xenopus laevis oocytes injected with cRNA
Procedure: (§1) cDNA clones of rat neuronal nAChR subunits (α3, α4, β2 and β4) and mouse muscle subunits (α1, β1, γ and δ) were from the Salk Institute for Biological Studies (Professor Stephen Heinemann). The human α7 and RIC-3 cDNAs were provided by Professor David Sattelle (University College London).
(§2) Oocytes isolated from mature female Xenopus laevis were supplied by the European Xenopus Resource Centre, University of Portsmouth, UK. Oocytes were treated with collagenase (0.5 mg/ml, Sigma type 1 A) in Ca^2+-free solution (96 mM NaCl, 2 mM KCl, 1 mM MgCl2, 5 mM HEPES, 2.5 mM Na-pyruvate, 100 U/mL penicillin, 0.1 mg/mL streptomycin, pH 7.5) with shaking at 19 °C to defolliculate and remove the connective tissue surrounding the cells. After separation, oocytes were washed 7 times with modified Barth’s solution (96 mM NaCl, 2 mM KCl, 1.8 mM CaCl2, 1 mM MgCl2, 5 mM HEPES, 2.5 mM Na-pyruvate, 0.5 mM theophylline, 50 μg/mL gentamicin, pH 7.5) and kept at 19 °C in the same solution.
(§3) Healthy oocytes were injected with cRNA using a Nano-liter Injector (World Precision Instruments Inc, USA). Mixtures of nAChR subunit cRNAs were injected as follows; for heteromeric rat neuronal receptors a 1:1 ratio of α:β at 200 ng/μL; for mouse embryonic muscle a 1:1:1:1 ratio of α:β:γ:δ at 25 ng/μL; human α7 at 100 ng/μL was mixed with RIC-3 at 30 ng/μL. Each oocyte was injected with 50 nL of RNA solution. Injected oocytes were saved in Barth’s solution at 19 °C for two to three days for expression of the target protein. During this time oocytes were regularly checked to remove unhealthy ones.
(§4) Electrophysiological recordings were taken from nAChR-expressing oocytes by two-electrode voltage clamp using a Geneclamp 500 voltage clamp amplifier (Axon instruments, USA). An oocyte was placed in the perfusion chamber using a plastic Pasteur pipette and the bath was perfused (~5 mL/min) with fresh Frog Ringer solution (96 mM NaCl, 2 mM KCl, 1.8 mM CaCl2 and 5 mM HEPES, pH 7.5). Microelectrodes were pulled from borosilicate glass capillaries (Harvard GC150TF-10) using a programmable micropipette puller (Sutter P97, USA), and they had resistances between 0.5 and 2.5 MΩ when filled with 3 M KCl. The oocyte was voltage-clamped at holding potentials (VH) between −60 and −100 mV. […] Currents were recorded to a PC via a digidata 1200 analog-to-digital converter (Axon Instuments, USA) using WinEDR v3.2.6 Software (Dr John Dempster, University of Strathclyde, UK).
(§5) Graphpad Prism 6 was used for data analysis, graph plotting and curve fitting. All plotted points are the mean ± SEM obtained from 4–20 oocytes.

α3β4(F255V) nAChR = molecular target: T2, α3β4(F255V) nAChR (Rattus norvegicus, UniProt P04757+P12392, F275V); experiment: Two-electrode voltage clamp of ACh currents, α3β4(F255V) nAChRs expressed in Xenopus oocytes; format: cell-based; conditions: for IC50: α3β4(F255V), ACh 100 μM
T2 construct: expressed in transfected cells; host or cells: Xenopus laevis oocytes injected with cRNA
Procedure: as §1, §2, §3, §4, §5

α1β1γδ nAChR = molecular target: T3, α1β1γδ nAChR (Mus musculus, UniProt P02716+P04756+P04760+P09690); experiment: cell-based; format: cell-based; conditions: α1β1γδ; for IC50: IC50 (95% CI), ACh 10 μM
T3 construct: expressed in transfected cells; host or cells: Xenopus laevis oocytes injected with cRNA
Procedure: as §2, §3, §4, §5

α3β4 nAChR = molecular target: T4, α3β4 nAChR (Rattus norvegicus, UniProt P04757+P12392); experiment: cell-based
T4 construct: expressed in transfected cells; host or cells: Xenopus laevis oocytes injected with cRNA
Procedure: as §2, §3, §4, §5

α4β4 nAChR = molecular target: T5, α4β4 nAChR (Rattus norvegicus, UniProt P09483+P12392); experiment: cell-based; format: cell-based; conditions: for IC50: IC50 (95% CI), ACh 10 μM
T5 construct: expressed in transfected cells; host or cells: Xenopus laevis oocytes injected with cRNA
Procedure: as §2, §3, §4, §5

α7 nAChR = molecular target: T6, α7 nAChR (Homo sapiens, UniProt P36544); experiment: Two-electrode voltage clamp of ACh currents, α7 nAChRs (with RIC-3) expressed in Xenopus oocytes; format: cell-based; conditions: for IC50: IC50 (95% CI), ACh 100 μM
T6 construct: expressed in transfected cells; host or cells: Xenopus laevis oocytes injected with cRNA
Procedure: as §2, §3, §4, §5

[1] = test system: human muscle-type nAChRs in TE671 cells; experiment: Muscle-type nAChRs in TE671 cells (previous study); format: cell-based; conditions: previous study compared with present oocyte data ref 8
α4β2(V253F) nAChR = molecular target: T7, α4β2(V253F) nAChR (Rattus norvegicus, UniProt P09483+P12390, V277F); experiment: Two-electrode voltage clamp of ACh currents, α4β2(V253F) nAChRs expressed in Xenopus oocytes; format: cell-based; conditions: for IC50: α4β2(V253F), ACh 10 μM
T7 construct: expressed in transfected cells; host or cells: Xenopus laevis oocytes injected with cRNA
Procedure: as §1, §2, §3, §4, §5

nAChRs = experiment: Two-electrode voltage clamp of Xenopus oocytes expressing nAChRs, statements across tested subtypes; format: cell-based
Procedure: as §1, §2, §3, §4, §5

α3β2 nAChR = α3β2 nAChR (Rattus norvegicus, UniProt P04757+P12390); experiment: Two-electrode voltage clamp of ACh currents, α3β2 nAChRs expressed in Xenopus oocytes; conditions: for IC50: IC50 (95% CI), ACh 30 μM
Procedure: as §2, §3, §4, §5

[2] = VH −60 mV, late current (1 min), read-out: IC50 (95% CI), Late
[3] = VH −60 mV, peak current, read-out: IC50 (95% CI), Peak
[4] = VH −80 mV, late current (1 min), read-out: IC50 (95% CI), Late
[5] = VH −80 mV, peak current, read-out: IC50 (95% CI), Peak
[6] = VH −100 mV, late current (1 min), read-out: IC50 (95% CI), Late
[7] = VH −100 mV, peak current, read-out: IC50 (95% CI), Peak

T6 sequence (P36544 23-502): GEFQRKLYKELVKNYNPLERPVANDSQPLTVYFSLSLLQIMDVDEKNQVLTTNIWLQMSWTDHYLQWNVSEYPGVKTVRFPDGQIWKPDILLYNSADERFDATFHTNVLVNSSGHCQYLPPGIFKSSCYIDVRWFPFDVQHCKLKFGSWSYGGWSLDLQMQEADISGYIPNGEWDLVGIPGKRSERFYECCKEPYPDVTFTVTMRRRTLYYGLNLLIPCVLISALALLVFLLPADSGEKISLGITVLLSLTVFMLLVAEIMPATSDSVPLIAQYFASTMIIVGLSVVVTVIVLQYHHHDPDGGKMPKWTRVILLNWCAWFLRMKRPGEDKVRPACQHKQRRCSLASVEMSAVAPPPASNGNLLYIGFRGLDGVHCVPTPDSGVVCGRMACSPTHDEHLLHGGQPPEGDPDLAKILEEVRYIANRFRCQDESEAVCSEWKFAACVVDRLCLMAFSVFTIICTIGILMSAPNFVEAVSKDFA
α3β2 nAChR, sequence (P04757 26-499): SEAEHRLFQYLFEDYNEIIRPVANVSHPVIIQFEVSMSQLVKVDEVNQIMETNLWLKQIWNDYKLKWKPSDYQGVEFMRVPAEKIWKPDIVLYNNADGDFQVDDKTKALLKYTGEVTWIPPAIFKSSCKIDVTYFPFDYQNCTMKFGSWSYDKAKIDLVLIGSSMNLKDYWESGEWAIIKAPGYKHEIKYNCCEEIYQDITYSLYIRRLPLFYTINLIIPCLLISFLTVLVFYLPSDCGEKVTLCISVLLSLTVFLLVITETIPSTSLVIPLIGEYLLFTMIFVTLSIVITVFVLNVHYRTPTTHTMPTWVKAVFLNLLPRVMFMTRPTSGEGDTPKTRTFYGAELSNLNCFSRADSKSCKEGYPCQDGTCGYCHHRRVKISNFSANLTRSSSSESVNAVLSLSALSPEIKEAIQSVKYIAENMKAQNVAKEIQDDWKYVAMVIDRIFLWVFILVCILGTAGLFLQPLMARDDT
α3β2 nAChR, sequence (P12390 25-500): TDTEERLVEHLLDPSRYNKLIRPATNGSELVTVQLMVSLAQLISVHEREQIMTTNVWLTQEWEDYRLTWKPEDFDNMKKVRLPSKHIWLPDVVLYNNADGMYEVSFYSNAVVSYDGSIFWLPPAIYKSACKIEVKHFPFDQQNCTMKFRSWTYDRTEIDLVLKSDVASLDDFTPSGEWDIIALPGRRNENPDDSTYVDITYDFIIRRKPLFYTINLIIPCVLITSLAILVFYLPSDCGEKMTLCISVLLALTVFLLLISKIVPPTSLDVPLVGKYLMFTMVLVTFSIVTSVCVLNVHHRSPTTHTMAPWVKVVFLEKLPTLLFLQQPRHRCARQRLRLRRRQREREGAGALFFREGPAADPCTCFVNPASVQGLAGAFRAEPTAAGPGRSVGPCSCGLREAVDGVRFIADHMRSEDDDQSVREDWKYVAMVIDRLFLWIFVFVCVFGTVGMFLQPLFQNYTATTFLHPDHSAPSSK
T4 sequence (P04757 26-499): as the sequence (P04757 26-499) above
T4 sequence (P12392 21-495): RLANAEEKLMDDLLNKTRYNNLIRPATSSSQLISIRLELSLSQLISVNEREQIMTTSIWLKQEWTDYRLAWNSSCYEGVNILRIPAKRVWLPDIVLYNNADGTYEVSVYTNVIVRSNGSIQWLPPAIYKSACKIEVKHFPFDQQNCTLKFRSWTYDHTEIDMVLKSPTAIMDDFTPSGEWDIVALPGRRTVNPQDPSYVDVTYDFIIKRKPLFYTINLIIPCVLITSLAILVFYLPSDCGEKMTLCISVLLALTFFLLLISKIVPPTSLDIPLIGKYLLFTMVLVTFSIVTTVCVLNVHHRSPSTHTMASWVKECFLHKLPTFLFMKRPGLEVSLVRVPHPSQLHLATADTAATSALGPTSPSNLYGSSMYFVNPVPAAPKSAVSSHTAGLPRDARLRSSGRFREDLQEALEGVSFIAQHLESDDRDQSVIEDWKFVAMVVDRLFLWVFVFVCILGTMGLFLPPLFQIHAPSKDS
T2 sequence (P04757 26-499): as the sequence (P04757 26-499) above
T2 sequence (P12392 21-495 F275V): as the sequence (P12392 21-495) above, with F255V counted along it
T5 sequence (P09483 31-630): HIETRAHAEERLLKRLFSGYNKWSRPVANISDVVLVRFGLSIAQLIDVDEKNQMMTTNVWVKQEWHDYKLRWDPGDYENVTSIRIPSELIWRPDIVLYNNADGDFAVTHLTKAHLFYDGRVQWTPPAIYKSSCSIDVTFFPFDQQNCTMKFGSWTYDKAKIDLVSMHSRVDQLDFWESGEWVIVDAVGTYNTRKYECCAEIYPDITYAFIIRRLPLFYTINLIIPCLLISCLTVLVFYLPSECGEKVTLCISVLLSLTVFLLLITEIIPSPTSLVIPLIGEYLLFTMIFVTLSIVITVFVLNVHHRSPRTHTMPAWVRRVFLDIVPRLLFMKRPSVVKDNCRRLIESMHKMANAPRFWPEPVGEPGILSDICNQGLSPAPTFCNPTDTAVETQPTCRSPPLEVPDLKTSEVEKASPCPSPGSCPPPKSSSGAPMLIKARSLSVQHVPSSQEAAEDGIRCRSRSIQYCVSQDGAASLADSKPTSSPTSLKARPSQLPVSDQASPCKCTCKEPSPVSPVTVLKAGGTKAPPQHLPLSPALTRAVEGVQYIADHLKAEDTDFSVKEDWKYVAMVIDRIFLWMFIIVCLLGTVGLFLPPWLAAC
T5 sequence (P12392 21-495): as the sequence (P12392 21-495) above
T7 sequence (P09483 31-630, stated change not applied): as the sequence (P09483 31-630) above
T7 sequence (P12390 25-500 V277F): as the sequence (P12390 25-500) above, with V253F counted along it
T1 sequence (P09483 31-630): as the sequence (P09483 31-630) above
T1 sequence (P12390 25-500): as the sequence (P12390 25-500) above
T3 sequence (P04756 21-457): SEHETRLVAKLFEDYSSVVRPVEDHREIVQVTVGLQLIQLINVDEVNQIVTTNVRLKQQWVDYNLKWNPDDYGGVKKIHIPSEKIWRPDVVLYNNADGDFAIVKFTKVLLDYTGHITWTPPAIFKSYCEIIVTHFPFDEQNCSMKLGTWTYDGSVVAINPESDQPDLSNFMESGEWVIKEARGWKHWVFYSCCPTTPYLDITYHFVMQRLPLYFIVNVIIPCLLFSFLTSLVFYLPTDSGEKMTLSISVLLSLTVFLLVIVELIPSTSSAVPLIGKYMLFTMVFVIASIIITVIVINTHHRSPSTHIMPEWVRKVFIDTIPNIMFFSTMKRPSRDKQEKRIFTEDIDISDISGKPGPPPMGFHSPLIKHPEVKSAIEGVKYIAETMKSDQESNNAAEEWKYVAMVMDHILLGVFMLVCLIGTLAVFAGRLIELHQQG
T3 sequence (P09690 24-501): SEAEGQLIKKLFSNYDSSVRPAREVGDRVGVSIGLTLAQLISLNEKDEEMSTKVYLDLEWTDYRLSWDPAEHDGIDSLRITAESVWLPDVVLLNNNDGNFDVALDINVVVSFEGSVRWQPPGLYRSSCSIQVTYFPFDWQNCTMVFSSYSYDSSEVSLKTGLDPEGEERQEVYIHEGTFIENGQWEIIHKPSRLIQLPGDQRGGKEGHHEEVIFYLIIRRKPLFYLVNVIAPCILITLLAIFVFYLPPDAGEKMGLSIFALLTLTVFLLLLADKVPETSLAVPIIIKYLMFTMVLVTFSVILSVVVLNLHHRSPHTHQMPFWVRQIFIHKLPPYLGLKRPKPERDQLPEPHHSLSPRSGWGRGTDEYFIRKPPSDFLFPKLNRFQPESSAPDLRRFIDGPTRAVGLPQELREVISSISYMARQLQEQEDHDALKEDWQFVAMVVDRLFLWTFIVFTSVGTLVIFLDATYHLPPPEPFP
T3 sequence (P04760 23-519): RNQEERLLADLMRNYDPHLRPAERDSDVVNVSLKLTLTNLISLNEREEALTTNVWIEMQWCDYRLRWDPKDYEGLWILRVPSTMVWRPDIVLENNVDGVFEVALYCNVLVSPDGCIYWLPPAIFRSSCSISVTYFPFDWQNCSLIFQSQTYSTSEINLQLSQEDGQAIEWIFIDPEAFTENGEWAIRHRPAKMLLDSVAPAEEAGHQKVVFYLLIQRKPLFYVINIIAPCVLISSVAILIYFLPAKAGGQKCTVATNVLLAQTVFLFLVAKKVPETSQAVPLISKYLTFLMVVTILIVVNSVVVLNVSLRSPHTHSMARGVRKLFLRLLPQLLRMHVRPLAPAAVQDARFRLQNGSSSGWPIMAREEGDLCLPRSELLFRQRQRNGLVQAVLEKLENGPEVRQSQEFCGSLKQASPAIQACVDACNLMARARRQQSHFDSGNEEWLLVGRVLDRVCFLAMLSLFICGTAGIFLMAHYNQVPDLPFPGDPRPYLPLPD
T3 sequence (P02716 25-520): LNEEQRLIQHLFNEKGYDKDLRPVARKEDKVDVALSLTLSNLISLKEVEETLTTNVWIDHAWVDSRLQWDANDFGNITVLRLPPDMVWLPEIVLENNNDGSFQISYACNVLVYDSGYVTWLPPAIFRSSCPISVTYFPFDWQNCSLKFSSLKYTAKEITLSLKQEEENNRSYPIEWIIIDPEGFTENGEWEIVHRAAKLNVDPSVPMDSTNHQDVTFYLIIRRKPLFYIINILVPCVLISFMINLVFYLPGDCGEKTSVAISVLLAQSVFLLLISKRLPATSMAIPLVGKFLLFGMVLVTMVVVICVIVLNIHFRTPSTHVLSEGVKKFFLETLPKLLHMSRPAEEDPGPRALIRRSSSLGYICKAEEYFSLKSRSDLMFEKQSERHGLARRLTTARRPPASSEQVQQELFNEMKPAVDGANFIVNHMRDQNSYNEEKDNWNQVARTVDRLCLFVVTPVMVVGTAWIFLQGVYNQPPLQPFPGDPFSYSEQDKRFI

CCCC(=O)N[C@@H](Cc1ccc(O)cc1)C(=O)NCCCCCCCCCCCCN [PhTX-12]
IC50 (α4β2 nAChR; Late, α4β2, VH −60 mV, late current (1 min)): 230 nM
IC50 (α4β2 nAChR; Late, α4β2, VH −80 mV, late current (1 min)): 280 nM
IC50 (α4β2 nAChR; Late, α4β2, VH −100 mV, late current (1 min)): 44 nM
IC50 (α4β2 nAChR; Peak, α4β2, VH −60 mV, peak current): 3870 nM
IC50 (α4β2 nAChR; Peak, α4β2, VH −80 mV, peak current): 2170 nM
IC50 (α4β2 nAChR; Peak, α4β2, VH −100 mV, peak current): 1640 nM
times less sensitive than the most sensitive subtype (α4β2 nAChR; α4β2 vs α3β4 (for PhTX-12: α1β1γδ along with α3β4), late current IC50, −80 mV): 3 times
increase in late current IC50 as compared to α3β4 (α3β4(F255V) nAChR; α3β4(F255V) vs α3β4, late current, −80 mV): 3.3 fold
reduction in peak current IC50 as compared to α3β4 (α3β4(F255V) nAChR; α3β4(F255V) vs α3β4, peak current, −80 mV): no difference
IC50 (α3β4(F255V) nAChR; [2]): 520 nM
IC50 (α3β4(F255V) nAChR; [3]): 1630 nM
IC50 (α3β4(F255V) nAChR; [4]): 360 nM
IC50 (α3β4(F255V) nAChR; [5]): 2780 nM
IC50 (α3β4(F255V) nAChR; [6]): 68 nM
IC50 (α3β4(F255V) nAChR; [7]): 1050 nM
IC50 (α1β1γδ nAChR; Late, VH −60 mV, late current (1 min)): 70 nM
IC50 (α1β1γδ nAChR; Late, VH −80 mV, late current (1 min)): 100 nM
IC50 (α1β1γδ nAChR; Late, VH −100 mV, late current (1 min)): 71 nM
IC50 (α1β1γδ nAChR; Peak, VH −60 mV, peak current): 3160 nM
IC50 (α1β1γδ nAChR; Peak, VH −80 mV, peak current): 6180 nM
IC50 (α1β1γδ nAChR; Peak, VH −100 mV, peak current): 5020 nM
surmountability of late current inhibition (α1β1γδ nAChR; 0.3 μM toxin, late current, −80 mV): insurmountable
surmountability of peak current inhibition by increasing ACh concentrations (α1β1γδ nAChR; 10 μM toxin, peak current, −80 mV): surmountable
voltage dependence of inhibition, late current (α1β1γδ nAChR; late current IC50 values, VH −60 to −100 mV): voltage-independent
IC50 (α3β4 nAChR; IC50 (95% CI), Late, α3β4, VH −60 mV, late current (1 min), ACh 100 μM): 110 nM
IC50 (α3β4 nAChR; IC50 (95% CI), Late, α3β4, VH −80 mV, late current (1 min), ACh 100 μM): 110 nM
IC50 (α3β4 nAChR; IC50 (95% CI), Late, α3β4, VH −100 mV, late current (1 min), ACh 100 μM): 27 nM
IC50 (α3β4 nAChR; IC50 (95% CI), Peak, α3β4, VH −60 mV, peak current, ACh 100 μM): 3090 nM
IC50 (α3β4 nAChR; IC50 (95% CI), Peak, α3β4, VH −80 mV, peak current, ACh 100 μM): 2620 nM
IC50 (α3β4 nAChR; IC50 (95% CI), Peak, α3β4, VH −100 mV, peak current, ACh 100 μM): 2030 nM
IC50 (α3β4 nAChR; IC50, α3β4, late current, −80 mV): 100 nM
surmountability of late current inhibition (α3β4 nAChR; α3β4, 0.3 μM toxin, late current, −80 mV): insurmountable
surmountability of peak current inhibition by higher ACh concentrations (α3β4 nAChR; α3β4, 10 μM toxin, peak current, −80 mV): surmountable
peak current during the first ACh application after removal of toxin (6 min) (α3β4 nAChR; α3β4, after 10 μM toxin, mean of all cells, −80 mV, not significantly greater than control (p = 0.217)): 119.4 % control response
IC50 (α4β4 nAChR; Late, α4β4, VH −60 mV, late current (1 min)): 250 nM
IC50 (α4β4 nAChR; Late, α4β4, VH −80 mV, late current (1 min)): 290 nM
IC50 (α4β4 nAChR; Late, α4β4, VH −100 mV, late current (1 min)): 190 nM
IC50 (α4β4 nAChR; Peak, α4β4, VH −60 mV, peak current): 1210 nM
IC50 (α4β4 nAChR; Peak, α4β4, VH −80 mV, peak current): 1650 nM
IC50 (α4β4 nAChR; Peak, α4β4, VH −100 mV, peak current): 2770 nM
voltage dependence of inhibition, late current (α4β4 nAChR; α4β4, late current IC50 values, VH −60 to −100 mV): voltage-independent
times less sensitive than the most sensitive subtype (α4β4 nAChR; α4β4 vs α3β4 (for PhTX-12: α1β1γδ along with α3β4), late current IC50, −80 mV): 3 times
IC50 (α7 nAChR; Late, α7, VH −60 mV, based on the area under the current trace (no stable late current)): 8320 nM
IC50 (α7 nAChR; Late, α7, VH −80 mV, based on the area under the current trace (no stable late current)): 4900 nM and 4920 nM
IC50 (α7 nAChR; Late, α7, VH −100 mV, based on the area under the current trace (no stable late current)): 5020 nM
IC50 (α7 nAChR; Peak, α7, VH −60 mV, peak current): 18700 nM
IC50 (α7 nAChR; Peak, α7, VH −80 mV, peak current): 11100 nM
IC50 (α7 nAChR; Peak, α7, VH −100 mV, peak current): 12100 nM
recovery of the late current after 6 min (α7 nAChR; α7, 10 μM toxin, −80 mV): complete
times less sensitive than the most sensitive subtype (α7 nAChR; α7 vs α3β4 (for PhTX-12: α1β1γδ along with α3β4), late current IC50, −80 mV): 49 times
lower potency at human muscle-type nAChRs in TE671 cells than in the present study [1]: 11 fold
reduction in late current IC50 as compared to α4β2 (α4β2(V253F) nAChR; α4β2(V253F) vs α4β2, late current, −80 mV): no significant differences
change in peak current IC50 as compared to α4β2 (α4β2(V253F) nAChR; α4β2(V253F) vs α4β2, peak current, −80 mV): no significant differences
IC50 (α4β2(V253F) nAChR; [2]): 410 nM
IC50 (α4β2(V253F) nAChR; [3]): 2220 nM
IC50 (α4β2(V253F) nAChR; [4]): 300 nM
IC50 (α4β2(V253F) nAChR; [5]): 4050 nM
IC50 (α4β2(V253F) nAChR; [6]): 190 nM
IC50 (α4β2(V253F) nAChR; [7]): 3480 nM
effect on membrane current when applied alone (nAChRs; 100 μM applied alone, VH = −80 mV, oocytes expressing nAChRs): did not produce any effect on membrane current
voltage dependence of inhibition of peak current (nAChRs; all nAChRs, peak current, VH −60 to −100 mV): voltage-independent for all nAChRs except for homomeric α7
reversibility of inhibition of nAChRs (nAChRs; all subunit combinations, 10 μM toxin, −80 mV): fully or almost reversible after 6 min
IC50 (α3β2 nAChR; Late, α3β2, VH −60 mV, late current (1 min)): 3200 nM
IC50 (α3β2 nAChR; Late, α3β2, VH −80 mV, late current (1 min)): 2570 nM
IC50 (α3β2 nAChR; Late, α3β2, VH −100 mV, late current (1 min)): 1380 nM
IC50 (α3β2 nAChR; Peak, α3β2, VH −60 mV, peak current): 65200 nM
IC50 (α3β2 nAChR; Peak, α3β2, VH −80 mV, peak current): 60000 nM and 60600 nM
IC50 (α3β2 nAChR; Peak, α3β2, VH −100 mV, peak current): 74400 nM
recovery of the late current after 6 min (α3β2 nAChR; α3β2, 10 μM toxin, −80 mV): complete
recovery of the peak current after 6 min (α3β2 nAChR; α3β2, 10 μM toxin, −80 mV): complete
times less sensitive than the most sensitive subtype (α3β2 nAChR; α3β2 vs α3β4 (for PhTX-12: α1β1γδ along with α3β4), late current IC50, −80 mV): 26 times
